This test deals with T1, human renin (Homo sapiens, UniProt P00797).
T1 sequence (P00797 67-406): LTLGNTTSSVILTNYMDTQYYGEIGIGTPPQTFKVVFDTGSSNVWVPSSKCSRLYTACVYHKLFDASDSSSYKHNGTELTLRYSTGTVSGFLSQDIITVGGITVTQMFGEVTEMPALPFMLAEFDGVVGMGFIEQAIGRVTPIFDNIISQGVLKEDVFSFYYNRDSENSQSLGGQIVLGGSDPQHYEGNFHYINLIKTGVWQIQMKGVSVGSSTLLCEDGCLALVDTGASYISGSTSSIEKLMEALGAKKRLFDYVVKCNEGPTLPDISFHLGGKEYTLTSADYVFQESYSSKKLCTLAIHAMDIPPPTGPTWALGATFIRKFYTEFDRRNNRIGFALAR
In words: Inhibition of renin activity. The class given is biochemical. The note with it: 1×10^-6 M of the test compound, sheep angiotensinogen, pH 7.3, 10 minutes at 37° C., mean of 3 or 4 experiments. On the procedure:
The ability of various compounds of the invention to inhibit the activity of renin was determined according to the following method, which follows essentially the procedure of Kokubu et al. [Hypertension, 5, 191-197 (1983)].
Specifically, each test compound was dissolved in 60% v/v aqueous ethanol. Human renin activity in the presence and absence of each compound was measured using sheep angiotensinogen. The total volume of 1 ml of assay mixture contained 0.1 mole/litre phosphate buffer (pH 7.3), human renin (equivalent to 0.5 ng angiotensin I per ml per minute), sheep angiotensinogen (equivalent to 200 ng angiotensin I) 1×10^-6 M of the test compound, 6% v/v ethanol and angiotensinase inhibitors (10 mmole/litre sodium ethylenediaminetetraacetate and 3.4 mmole/litre 8-hydroxyquinoline). The mixture was allowed to react for 10 minutes at 37° C., and then the reaction was stopped by placing the reaction tube in a boiling water bath for 5 minutes. The mixture was then centrifuged and the supernatant (0.05-0.1 ml) was used to assay remaining angiotensin I.
An identical experiment was carried out, as a control, except that the test compound was omitted. From the values obtained were calculated the % inhibition of renin activity achieved by each test compound. The results are shown in the following Table 9, in which the compounds of the invention are identified by the numbers of the Examples given hereafter in which are described their preparation. The values given are the mean of 3 or 4 experiments.
Turning to `CC(C)N(CC(=O)N[C@@H](Cc1cccc2ccccc12)C(=O)N[C@@H](Cc1cscn1)C(=O)N[C@@H](CC1CCCCC1)[C@@H](O)CC(=O)NCCN1CCOCC1)Cc1ccccc1` [Example 65, N-{N-[N-(N-Benzyl-N-isopropylaminoacetyl)-3-(1-naphthyl)-L-alanyl]-3-(4-thiazolyl)-L-alanyl}-cyclostatin-(2-morpholinoethy)amide], the “Inhibitory Activity (%)” value was 97.4%.
As for `CC[C@H](C)CNC(=O)C[C@H](O)[C@H](CC1CCCCC1)NC(=O)[C@H](Cc1cscn1)NC(=O)[C@H](Cc1cccc2ccccc12)NC(=O)CN1CCOCC1` [Example 98, N-{N-[N-Morpholinoacetyl-3-(1-naphthyl)-L-alanyl]-3-(4-thiazolyl)-L-alanyl}-cyclostatin-[(S)-2-methylbutyl]amide], the figure is 98.1%.
For the compound “N-{N-[(2R)-2-(1-Naphthylmethyl)-3-thiomorpholinocarbonylpropionyl]-3-(4-thiazolyl)-DL-alanyl}-cyclostatin-(2-morpholinoethyl)amide [Example 9]”, the “Inhibitory Activity (%)” value stood at 94.0%.
Regarding `CC(C)CCNC(=O)C[C@H](O)[C@H](CC1CCCCC1)NC(=O)[C@H](Cc1cscn1)NC(=O)[C@H](Cc1cccc2ccccc12)NC(=O)CN(C)Cc1ccccc1` [Example 111, N-{N-[N-(Benzyl-N-methylaminoacetyl)-3-(1-naphthyl)-L-alanyl]-3-(4-thiazolyl)-L-alanyl}-cyclostatin-isopentylamide], the “Inhibitory Activity (%)” value is given as 96.0%.
As for “N-{N-[N-(N-Benzyl-N-ethylaminoacetyl)-3-(1-naphthyl)-L-alanyl]-L-leucyl}-cyclostatin-(2-morpholinoethyl)amide [Example 69]”, the figure is 96.1%.
The figure for `O=C(C[C@H](O)[C@H](CC1CCCCC1)NC(=O)C(Cc1cscn1)NC(=O)[C@@H](CC(=O)N1CCOCC1)Cc1cccc2ccccc12)NCCN1CCOCC1` (mixture of isomers) [Example 2, N-{N-[(2R)-3-Morpholinocarbonyl-2-(1-naphthylmethyl)propionyl]-3-(4-thiazolyl)-DL-alanyl}-cyclostatin-(2-morpholinoethyl)amide] is 91.2%; for `O=C(C[C@H](O)[C@H](CC1CCCCC1)NC(=O)C(Cc1cscn1)NC(=O)[C@H](Cc1cccc2ccccc12)NC(=O)CCCN1CCOCC1)NCCN1CCOCC1` (mixture of isomers) [Example 42, N-55 N-[N-(4-Morpholinobutyryl)-3-(1-naphthyl -L-alanyl]-3-(4-thiazolyl)-DL-alanyl}-cyclostatin-(2-morpholinoethyl)amide] it is 96.7%.
As for `O=C(C[C@@H](Cc1cccc2ccccc12)C(=O)N[C@@H](Cc1cscn1)C(=O)N[C@@H](CC1CCCCC1)[C@@H](O)CC(=O)NCCN1CCOCC1)NCCc1ccccc1` [Example 13, N-{N-[(2R)-2-(1-Naphthylmethyl)-3-(phenethylcarbamoyl)propionyl]-3-(4-thiazolyl)-L-alanyl}-cyclostatin-(2-morpholinoethyl)amide], the figure is 96.6%; as for `CCN(CC(=O)N[C@@H](Cc1cccc2ccccc12)C(=O)N[C@@H](Cc1cscn1)C(=O)N[C@@H](CC1CCCCC1)[C@@H](O)CC(=O)NCCN1CCOCC1)Cc1ccccc1` [Example 64, N-{N-[N-(N-Benzyl-N-ethylaminoacetyl)-3-(1-naphthyl)-L-alanyl]-3-(4-thiazolyl)-L-alanyl}-cyclostatin-(2-morpholinoethyl)amide], 97.5%; as for `COc1ccccc1N1CCN(CC(=O)N[C@@H](Cc2cccc3ccccc23)C(=O)N[C@@H](Cc2cscn2)C(=O)N[C@@H](CC2CCCCC2)[C@@H](O)CC(=O)NCCN2CCOCC2)CC1` [Example 66, N-[N-{N-[4-(2-Methoxyphenyl)-1-piperazinyl]acetyl-3-(1-naphthyl)-L-alanyl}-3-(4-thiazolyl)-L-alanyl]-cyclostatin-(2-morpholinoethyl)amide], 95.7%.
For `O=C(C[C@H](O)[C@H](CC1CCCCC1)NC(=O)[C@H](Cc1ccno1)NC(=O)[C@@H](CC(=O)N1CCOCC1)Cc1cccc2ccccc12)NCCN1CCOCC1` [Example 3, N-{N-[(2R)-3-Morpholinocarbonyl-2-(1-naphthylmethyl)propionyl]-3-(5-isoxazolyl)-L-alanyl}-cyclostatin-(2-morpholinoethyl)amide], the “Inhibitory Activity (%)” value amounted to 92.2%.
Turning to `CCC(C)CNC(=O)C[C@H](O)[C@H](CC1CCCCC1)NC(=O)[C@H](Cc1cscn1)NC(=O)[C@H](Cc1cccc2ccccc12)NC(=O)CN1CCOCC1` (mixture of isomers) [Example 109], the “Inhibitory Activity (%)” value is on record as 98.3%.
The figure for `CCCCNC(=O)C[C@H](O)[C@H](CC1CCCCC1)NC(=O)[C@H](Cc1cscn1)NC(=O)[C@H](Cc1cccc2ccccc12)NC(=O)CN(C)C1CCCCC1` [Example 112, N-{N-[N-(N-Cyclohexyl-N-methylaminoacetyl)-3-(1-naphthyl)-L-alanyl]-3-(4-thiazolyl)-L-alanyl}-cyclostatin-butylamide] is 98.0%; for `CC(C)CCNC(=O)C[C@H](O)[C@H](CC1CCCCC1)NC(=O)[C@H](Cc1cscn1)NC(=O)[C@H](Cc1cccc2ccccc12)NC(=O)CN1CCOCC1` [Example 108] it is 98.6%; for `CC(C)CNC(=O)C[C@H](O)[C@H](CC1CCCCC1)NC(=O)[C@H](Cc1cscn1)NC(=O)[C@H](Cc1cccc2ccccc12)NC(=O)CN1CCOCC1` [Example 105, N-{N-[N-Morpholinoacetyl-3-(1-naphthyl)-L-alanyl]-3-(4-thiazolyl)-L-alanyl}-cyclostatin-isobutylamide] it is 98.0%.
The figure for `CCCNC(=O)C[C@H](O)[C@H](CC1CCCCC1)NC(=O)[C@H](Cc1cscn1)NC(=O)[C@H](Cc1cccc2ccccc12)NC(=O)CN1CCOCC1` [Example 103, N-{N-[N-Morpholinoacetyl-3-(1-naphthyl)-L-alanyl]-3-(4-thiazolyl)-L-alanyl}-cyclostatin-propylamide] is 98.6%; for `CCCCCNC(=O)C[C@H](O)[C@H](CC1CCCCC1)NC(=O)[C@H](Cc1cscn1)NC(=O)[C@H](Cc1cccc2ccccc12)NC(=O)CN1CCOCC1` [Example 107, N-{N-[N-Morpholinoacetyl-3-(1-naphthyl)-L-alanyl]-3-(4-thiazolyl)-L-alanyl}-cyclostatin-pentylamide] it is 98.4%.
The figure for `CC(C)C[C@H](NC(=O)[C@H](Cc1cccc2ccccc12)NC(=O)CN(C)Cc1ccccc1)C(=O)N[C@@H](CC1CCCCC1)[C@@H](O)CC(=O)NCCCN1CCCC1=O` [Example 73, N-{N-[N-(N-Benzyl-N-methylaminoacetyl)-3-(1-naphthyl)-L-alanyl]-L-leucyl}-cyclostatin-[3-(2-oxo-1-pyrrolidinyl)propyl]amide] is 97.7%.
Consider `CCCCCCNC(=O)C[C@H](O)[C@H](CC1CCCCC1)NC(=O)[C@H](Cc1cscn1)NC(=O)[C@H](Cc1cccc2ccccc12)NC(=O)CN1CCOCC1` [Example 110, N-{N-[N-Morpholinoacetyl-3-(1-naphthyl)-L-alanyl]-3-(4-thiazolyl)-L-alanyl}-cyclostatin-hexylamide], for which the “Inhibitory Activity (%)” value is given as 98.3%.
As for `CC[C@H](C)[C@@H](CN1CCOCC1)NC(=O)C[C@H](O)[C@H](CC1CCCCC1)NC(=O)[C@H](Cc1cscn1)NC(=O)[C@H](CC1CCCCC1)NC(=O)CN(C)Cc1ccccc1` [Example 100, N-{N-[N-(N-Benzyl-N-methylaminoacetyl)-3-cyclohexyl-L-alanyl]-3-(4-thiazolyl)-L-alanyl}-cyclostatin-[(1S,2S)-2-methyl-1-(morpholinomethyl)butyl]amide], the figure is 96.1%; as for `O=C(C[C@H](O)[C@H](CC1CCCCC1)NC(=O)C(Cc1cscn1)NC(=O)[C@H](Cc1cccc2ccccc12)NC(=O)CN1CCOCC1)NCCN1CCCC1` (mixture of isomers) [Example 43, N-{N-[N-Morpholinoacetyl-3-(1-naphthyl)-L-alanyl]-(4-thiazolyl)-DL-alanyl]-cyclostatin-2-(1-pyrrolidinylethyl)amide], 91.2%.
`CCCCNC(=O)C[C@H](O)[C@H](CC1CCCCC1)NC(=O)[C@H](Cc1cscn1)NC(=O)[C@H](Cc1cccc2ccccc12)NC(=O)CN1CCOCC1` [Example 104, N-{N-[N-Morpholinoacetyl-3-(1-naphthyl)-L-alanyl]-3-(4-thiazolyl)-L-alanyl}-cyclostatin-butylamide]: the “Inhibitory Activity (%)” value is given as 98.6%.

For the origin of these results see patent US5378690A, “New renin-inhibitory oligopeptides, their preparation and their use” (Sankyo Company, Limited, priority 1986, dated 1995).
